Results as given in patent US10752612B2, “PLK4 inhibitors” (LUDWIG INSTITUTE FOR CANCER RESEARCH LTD, priority 2015, dated 2020).

What follows are molecules tested on RPE1 cells (assay: Analysis of mitosis and daughter cell fate, RPE1). Settings: RPE1, only mitotic events with clear missegregation, FIG. 18B.
Format: cell-based, human
Method: Analysis of mitosis and daughter cell fate. […] Cells were seeded into 96-well cycloolefin plates at 5000 cells/well, 8-10 hours before imaging. Movies were acquired on the CV1000 with a 40×0.95 NA U-PlanApo objective. The imaging chamber was maintained at 37° C. and 5% CO2. Image acquisition and data analysis were performed using CellVoyager software. 20 fields/well were imaged. For HeLa and NIH/3T3 cells, 5×2 μm z-sections in the GFP (25% power, 125 ms, 30% gain) and RFP (25% power, 100 ms, 30% gain) channels were captured in each field, at 5-minute intervals for 24 hours. For RPE1 cells, 5×2 μm z-sections in the GFP (20% power, 100 ms, 30% gain) and RFP (25% power, 100 ms, 30% gain) channels were captured in each field, at 5-minute intervals for 8 hours. To track RPE1 daughter cell fate, imaging was then switched to 3×4 μm z-sections in the RFP channel only, at 10-minute intervals for 48 hours. Mitosis was measured from nuclear envelope breakdown to anaphase onset (or arrest). Results represent combined measurements of 100 mother cells per condition from 2-4 independent experiments.
To study the correlation between mother cell prometaphase duration and daughter cell fate, RPE1 cells co-expressing centrin-GFP and H2B-RFP were seeded into 96-well cycloolefin plates at 5000 cells/well, 8-10 hours before imaging. Cells were treated with 80 nM nocodazole and immediately imaged on the CV1000 system with a 40×0.95 NA U-PlanApo objective. The imaging chamber was maintained at 37° C. and 5% CO2. 20 fields/well were imaged. 5×2 Lm z-sections in the GFP (20% power, 100 ms, 30% gain) and RFP (25% power, 100 ms, 30% gain) channels were captured in each field, at 5-minute intervals for 6 hours. The plate was then removed from the microscope, and wells were washed 6 times with warm medium. The plate was returned to the microscope, and imaging was resumed, capturing 3×4 Lm z-sections in the RFP channel only, at 10-minute intervals for 50 hours. To study the effect of chromosome missegregation on daughter cell fate, cells were treated with 1 LM NMS-P715 to inhibit the spindle assembly checkpoint kinase Mps1, then imaged as described above. Only mitotic events with clear missegregation (lagging chromosomes and subsequent formation of daughter cells with micronuclei) were analyzed. For both experiments, results represent combined measurements of 100 mother cells from 2 independent experiments.

Structure (SMILES)	percentage of daughters not dividing within 48 hours [%]
CCc1cccc(CC)c1NC(=O)c1nn(C)c2c1CCc1cnc(Nc3ccc(C(=O)NC4CCN(C)CC4)cc3OC(F)(F)F)nc1-2 [NMS-P715]	11.4

These molecules were tested against T1, human Plk4 kinase domain (aa 2-275) (Homo sapiens, UniProt O00444) (assay: Plk4 kinase assay (ADP-Glo)). Settings: Table 1.
T1 construct: purified 6×His-tagged human Plk4 kinase domain (aa 2-275); 6xHis; made in house; host or cells: E. coli
T1 sequence (O00444 2-275): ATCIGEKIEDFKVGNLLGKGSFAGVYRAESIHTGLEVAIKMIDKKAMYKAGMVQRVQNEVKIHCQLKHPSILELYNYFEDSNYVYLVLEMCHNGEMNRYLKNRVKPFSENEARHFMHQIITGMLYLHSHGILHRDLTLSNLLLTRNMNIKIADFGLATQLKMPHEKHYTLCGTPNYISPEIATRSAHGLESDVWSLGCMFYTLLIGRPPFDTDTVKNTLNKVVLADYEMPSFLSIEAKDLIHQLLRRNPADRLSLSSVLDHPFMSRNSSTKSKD
Format: biochemical
In short: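 Enzyme at 2.5-10 nM final, pH 8.0, reacted 4-16 hours at 25° C; ADP generation read by ADP-Glo luminescence. Ki derived from IC50 by Cheng-Prusoff or, for tight binders, Copeland formalism.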

Structure (SMILES)	IC50 [µM]
CNCCN(C)c1nc(Sc2ccc(NC(=O)C3CC3)cc2)nc(Nc2cc(C)[nH]n2)c1OC	0.1 to 1
CCOc1c(Nc2cc(C)[nH]n2)nc(Sc2ccc(NC(=O)C3CCCC3)cc2)nc1N1CCN(C(=O)CCOC)CC1	0.1 to 1
CCOc1c(Nc2cc(C)[nH]n2)nc(Sc2ccc(NC(=O)C3CC3)cc2)nc1N1CCN(C(C)=O)CC1	0.1 to 1
CCOc1c(Nc2cc(C)[nH]n2)nc(Sc2ccc(NC(=O)C3CCCC3)cc2)nc1N1CCOCC1	0.1 to 1
COc1c(Nc2cc(C)[nH]n2)nc(Sc2ccc(S(=O)(=O)Cc3ccccc3)cc2)nc1N1CCN(CCN2CCN(C)CC2)CC1	< 1
COC(=O)c1cccc(CS(=O)(=O)c2ccc(Sc3nc(Nc4cc(C)[nH]n4)c(OC)c(N4CCOCC4)n3)c(F)c2)c1F	< 1
CCNc1nc(Sc2ccc(NC(=O)C3CC3)cc2)nc(Nc2cc(C)[nH]n2)c1C	< 1
COc1c(Nc2cc(C)[nH]n2)nc(Sc2ccc(NC(=O)C3CCCC3)cc2)nc1N(C)C	< 1
CCCOc1c(Nc2cc(C)[nH]n2)nc(Sc2ccc(S(=O)(=O)Cc3ccccc3)cc2)nc1N1CCN(CCN(C)C)CC1	< 1
CCOc1c(Nc2cc(C)[nH]n2)nc(Sc2ccc(NC(=O)C3CC3)cc2)nc1N1CCC(O)CC1	< 1
CCN(C)c1nc(Sc2ccc(NC(=O)C3CCCC3)cc2)nc(Nc2cc(C)[nH]n2)c1C	< 1
CCc1cc(Nc2nc(SC)nc(N3CCN(CCN(C)C)CC3)c2C)n[nH]1	< 1
CCOc1c(Nc2cc(C)[nH]n2)nc(Sc2ccc(NC(=O)C3CCCC3)cc2)nc1N1CCN(C(C)=O)CC1	0.1 to 1
COCCN1CCN(c2nc(Sc3ccc(NC(=O)C4CCCC4)cc3)nc(Cc3cc(C)[nH]n3)c2C)CC1	< 1
COc1c(Nc2cc(C)[nH]n2)nc(Sc2ccc(NC(C)=O)cc2)nc1N1CCN(C(C)C)CC1	< 1
COc1c(Nc2cc(C)[nH]n2)nc(Sc2ccc(NC(C)=O)cc2)nc1NC1CCN(C)CC1	< 1
Cc1cc(Nc2nc(Sc3ccccc3)nc(N(C)C(C)C)c2C)n[nH]1	< 1
COc1c(Nc2cc(C)[nH]n2)nc(Sc2ccc(S(=O)(=O)Cc3cccc([N+](=O)[O-])c3F)cc2)nc1N1CCOCC1	< 1
CCOc1c(Nc2cc(C)[nH]n2)nc(Sc2ccc(NC(C)=O)cc2)nc1N1CCC(O)CC1	< 1
COc1c(Nc2ncc(C)s2)nc(Sc2ccc(NC(C)=O)cc2)nc1N1CCN(CCN(C)C)CC1	< 1
COc1c(Nc2cc(C)[nH]n2)nc(Sc2ccc(NC(C)=O)cc2)nc1N1CC(C)N(CCN(C)C)C(C)C1 (centres unmarked)	< 1
CCOc1c(Nc2cc(C)[nH]n2)nc(SC)nc1N1CCCCC1	0.1 to 1
COc1c(Nc2cc(C)[nH]n2)nc(Sc2ccc(S(=O)(=O)Cc3c(F)c(F)cc(F)c3F)cc2F)nc1N1CCOCC1	< 1
CC(=O)Nc1ccc(Sc2nc(Nc3cc(C)[nH]n3)c(Cl)c(N3CCCCC3)n2)cc1	< 1
CC(=O)Nc1ccc(Sc2nc(Nc3cc(C)[nH]n3)c(C)c(N(C)C)n2)cc1	< 1
CCOc1c(Nc2cc(C)[nH]n2)nc(Sc2ccc(NC(=O)C3CC3)cc2)nc1N1CCN(C(=O)CCN(C)C)CC1	0.1 to 1
COc1c(Nc2cc(C)[nH]n2)nc(Sc2ccc(C(=O)Oc3cccc([N+](=O)[O-])c3F)cc2F)nc1N1CCOCC1	< 1

The next lines start with the values.

IC50 [µM]	Structure (SMILES)
< 1	COc1c(Nc2cc(C)[nH]n2)nc(Sc2ccc(S(=O)(=O)Cc3cccc([N+](=O)[O-])c3F)cc2F)nc1N1CCC(CC(N)=O)CC1
< 1	Cc1ccc(Sc2nc(Nc3cc(C)[nH]n3)c(C)c(N3CCOCC3)n2)cc1
< 1	CC(=O)Nc1ccc(Sc2nc(Nc3cc(C)[nH]n3)c(C)c(N3CCN(CCN(C)C)CC3)n2)cc1
< 1	CCOc1c(Nc2cc(C)[nH]n2)nc(Sc2ccc(S(=O)(=O)CC)cc2)nc1N1CCC(CCN(C)C)CC1
< 1	CC(=O)Nc1ccc(Sc2nc(Nc3cc(C)[nH]n3)c3c(n2)C2(CC3)CCN(C(=O)C(C)(C)C)CC2)cc1
< 1	COc1c(Nc2cc(C)[nH]n2)nc(Sc2ccc(NC(C)=O)cc2)nc1N1CC2CCC(C1)N2CCN(C)C
< 1	CNC(=O)Nc1ccc(Sc2nc(Nc3cc(C)[nH]n3)c(C)c(N3CCOCC3)n2)cc1
< 1	Cc1cc(Nc2nc(Sc3ccc(N)cc3)nc(N3CCC(O)CC3)c2C)n[nH]1
< 1	COc1c(Nc2cc(C)[nH]n2)nc(Sc2ccc(NC(C)=O)cc2)nc1N1CCN(CC(N)=O)CC1
< 1	COc1c(Nc2cc(C)[nH]n2)nc(Sc2ccc(NC(C)=O)cc2)nc1N1CCN(CC(=O)N2CCCCC2)CC1
< 1	Cc1cc(Nc2nc(Sc3ccc(NC(=O)C4CC4)cc3)nc(N(C)CCN(C)C)c2C)n[nH]1
< 1	COc1c(Nc2cc(C)[nH]n2)nc(Sc2ccc(S(=O)(=O)Cc3cccc(C(F)(F)F)c3F)cc2F)nc1N1CCOCC1
< 1	CCc1cc(Nc2nc(SC)nc(N3CCN(CCN(C)C)CC3)c2OC)n[nH]1
< 1	COc1c(Nc2cc(C)[nH]n2)nc(Sc2ccc(S(=O)(=O)Cc3ccccc3)cc2)nc1N1CCN(CCN2CCCCCC2)CC1
< 1	COc1c(Nc2cc(C)[nH]n2)nc(Sc2ccc(NC(C)=O)cc2)nc1N1CCC(F)(F)CC1
< 1	COc1c(Nc2cc(C)[nH]n2)nc(Sc2ccc(S(=O)(=O)Cc3cccc(C(=O)O)c3)cc2)nc1N1CCN(CCN(C)C)CC1
< 1	COc1c(Nc2cc(C)[nH]n2)nc(Sc2ccc(NC(=O)C3CC3)cc2)nc1N1CCN(C(=O)CN(C)C)CC1
< 1	CCN(c1nc(Sc2ccc(NC(C)=O)cc2)nc(Nc2cc(C)[nH]n2)c1C)C(C)C
< 1	COCC(=O)N1CCN(c2nc(Sc3ccc(NC(=O)C4CC4)cc3)nc(Nc3cc(C)[nH]n3)c2OC)CC1
< 1	COc1c(Nc2cc(C)[nH]n2)nc(Sc2ccc(S(=O)(=O)Cc3cccc(-c4ccccc4)c3)cc2)nc1N1CCN(CCN(C)C)CC1
< 1	CC(=O)Nc1ccc(Sc2nc(Nc3cc(C)[nH]n3)c3c(n2)C2(CC3)CCN(CCN(C)C)CC2)cc1
< 1	COc1c(Nc2cc(C)[nH]n2)nc(Sc2ccc(S(=O)(=O)Cc3ccc(Cl)cc3)cc2)nc1N1CCN(CCN(C)C)CC1
